Experimental data taken from patent US11214803B2, “Modulators of YAP1 expression” (Ionis Pharmaceuticals, Inc., priority 2019, dated 2022).
Strand notation (5' to 3'): a small letter for the sugar, then the base; units joined by * are phosphorothioate-linked, units joined directly phosphodiester-linked; [ ] holds rarer units or linkages, { } end groups; capitals alone tell only the bases. k = constrained ethyl (cEt); [5mC] = 5-methylcytosine; d = 2'-deoxy (DNA)

test system: Yap1 mRNA; experiment: Antisense inhibition of human Yap1 in A-431 cells by cEt gapmers, single dose (Example 2, RTS4814); type: cell-based; details: Table 18; A-431 cells, 5,000 cells per well, free uptake, 2,000 nM modified oligonucleotide, approx. 48 hours; RTS4814; normalized to RIBOGREEN; Yap1 mRNA as percent of untreated control
Procedure, shortened: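 Read-out is Yap1 mRNA as percent of untreated cells, by real-time RT-PCR (probe set RTS4814) normalized to total RNA via RIBOGREEN. Cells were A-431 dosed with 2,000 nM gapmer without transfection for approximately 48 hours.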

| Substance | YAP1 (% UTC) |
| --- | --- |
| 1076004 (kT*kA*kA*dT*dT*dT*dA*dA*dT*dG*dG*d[5mC]*dT*kT*kG*k[5mC]; antisense) [Compound 1076004] | 2 % UTC |
| 1076036 (k[5mC]*kG*kT*dA*dA*dT*dT*dA*dG*dA*dA*dA*d[5mC]*kT*kT*kG; antisense) [Compound 1076036] | 19 % UTC |
| 1076068 (k[5mC]*kT*kA*dA*dA*dA*dT*dG*dA*d[5mC]*d[5mC]*dT*dT*kA*kG*k[5mC]; antisense) [Compound 1076068] | 73 % UTC |
| 1076100 (kA*kA*kT*dA*dA*dG*dG*dG*dA*d[5mC]*dT*dA*d[5mC]*kT*kT*kT; antisense) [Compound 1076100] | 65 % UTC |

same assay, conditions: Table 19; A-431 cells, 5,000 cells per well, free uptake, 2,000 nM modified oligonucleotide, approx. 48 hours; RTS4814; normalized to RIBOGREEN; Yap1 mRNA as percent of untreated control

| Substance | YAP1 (% UTC) |
| --- | --- |
| 1076005 (kG*kT*kA*d[5mC]*dA*dA*dA*dA*dT*d[5mC]*dT*d[5mC]*d[5mC]*kA*kG*kG; antisense) [Compound 1076005] | 69 % UTC |
| 1076037 (k[5mC]*kT*kT*dA*dA*dA*dT*dT*d[5mC]*dT*d[5mC]*dT*dT*kA*k[5mC]*kG; antisense) [Compound 1076037] | 21 % UTC |
| 1076069 (kT*k[5mC]*kT*dA*dA*dA*dA*dT*dG*dA*d[5mC]*d[5mC]*dT*kT*kA*kG; antisense) [Compound 1076069] | 118 % UTC |

same assay, conditions: Table 20; Yap1 mRNA, percent of untreated control; 3-10-3 cEt gapmers targeting SEQ ID NO.: 1 and 2

| Substance | YAP1 (% UTC) |
| --- | --- |
| 1075974 (kA*kA*kA*dA*dA*dA*dT*dT*d[5mC]*d[5mC]*dG*d[5mC]*dA*kA*k[5mC]*kA; antisense) [Compound 1075974] | 39 % UTC |
| 1076006 (kT*kT*kT*dA*dA*dA*d[5mC]*d[5mC]*dT*dG*dA*dG*dA*k[5mC]*kT*k[5mC]; antisense) [Compound 1076006] | 41 % UTC |
| 1076038 (kA*kG*kG*d[5mC]*dA*dA*dG*dA*dA*dT*dT*dG*dG*kG*kT*kA; antisense) [Compound 1076038] | 11 % UTC |
| 1076070 (kA*kT*kT*dA*dG*dT*dA*dA*dT*dG*d[5mC]*dA*d[5mC]*kA*kG*kG; antisense) [Compound 1076070] | 6 % UTC |

same assay, conditions: Table 21; Yap1 mRNA, percent of untreated control; 3-10-3 cEt gapmers targeting SEQ ID NO.: 1 and 2

| Substance | YAP1 (% UTC) |
| --- | --- |
| 1075975 (kG*kG*kA*dA*dA*dA*dA*dA*dA*dT*dT*d[5mC]*d[5mC]*kG*k[5mC]*kA; antisense) [Compound 1075975] | 84 % UTC |
| 1076007 (k[5mC]*kA*kT*dT*dA*dG*dG*d[5mC]*d[5mC]*dT*dT*dT*dT*kA*k[5mC]*kT; antisense) [Compound 1076007] | 27 % UTC |
| 1076039 (kG*kA*kT*dT*dA*dG*dA*dG*d[5mC]*dT*dG*dT*dA*kT*kT*k[5mC]; antisense) [Compound 1076039] | 29 % UTC |
| 1076071 (kT*kA*kT*dT*dA*dG*dT*dA*dA*dT*dG*d[5mC]*dA*k[5mC]*kA*kG; antisense) [Compound 1076071] | 14 % UTC |

same assay, conditions: Table 22; Yap1 mRNA as percent of untreated control; 3-10-3 cEt gapmers; single dose

| Substance | YAP1 (% UTC) |
| --- | --- |
| 1075976 (kA*kT*kT*dA*dA*dA*dA*dG*dT*d[5mC]*dG*dG*dG*k[5mC]*k[5mC]*kA; antisense) [Compound 1075976] | 92 % UTC |
| 1076008 (kA*kG*k[5mC]*dG*dA*dA*dA*dA*dT*dA*dA*d[5mC]*dA*kT*kT*kA; antisense) [Compound 1076008] | 33 % UTC |
| 1076040 (k[5mC]*kT*kT*dA*dA*dA*dG*dA*dA*dG*d[5mC]*dA*d[5mC]*kT*kA*kG; antisense) [Compound 1076040] | 105 % UTC |
| 1076072 (k[5mC]*kA*k[5mC]*dA*dA*dA*dA*dA*d[5mC]*dT*dG*dG*dT*k[5mC]*kT*kG; antisense) [Compound 1076072] | 18 % UTC |

same assay, conditions: Table 23; Yap1 mRNA as percent of untreated control; 3-10-3 cEt gapmers; single dose

| Substance | YAP1 (% UTC) |
| --- | --- |
| 1075977 (kG*kA*kT*dT*dA*dA*dA*dA*dG*dT*d[5mC]*dG*dG*kG*k[5mC]*k[5mC]; antisense) [Compound 1075977] | 73 % UTC |
| 1076009 (kT*kA*kG*d[5mC]*dG*dA*dA*dA*dA*dT*dA*dA*d[5mC]*kA*kT*kT; antisense) [Compound 1076009] | 69 % UTC |
| 1076041 (kG*kT*kT*dA*dA*dA*dG*dA*dG*dT*dG*dG*dA*kA*kA*kT; antisense) [Compound 1076041] | 47 % UTC |
| 1076073 (k[5mC]*kT*kT*dT*dA*dA*dG*dG*dT*d[5mC]*dT*dA*dG*kT*kT*kA; antisense) [Compound 1076073] | 47 % UTC |

same assay, conditions: Table 24; Yap1 mRNA as percent of untreated control; 3-10-3 cEt gapmers targeting SEQ ID NO.: 1, and 2

| Substance | YAP1 (% UTC) |
| --- | --- |
| 1075978 (kA*kG*kA*dT*dT*dA*dA*dA*dA*dG*dT*d[5mC]*dG*kG*kG*k[5mC]; antisense) [Compound 1075978] | 11 % UTC |
| 1076010 (kT*kA*kT*dA*dA*dA*d[5mC]*dA*dA*dT*dA*dG*d[5mC]*kG*kA*kA; antisense) [Compound 1076010] | 44 % UTC |
| 1076042 (k[5mC]*kT*kT*dA*dA*dG*d[5mC]*dA*dA*dG*dA*dG*dT*k[5mC]*k[5mC]*kA; antisense) [Compound 1076042] | 35 % UTC |
| 1076074 (k[5mC]*kT*kA*dA*dT*dT*dA*dG*d[5mC]*dT*dT*dT*d[5mC]*kA*kG*k[5mC]; antisense) [Compound 1076074] | 92 % UTC |

same assay, conditions: Table 25; Yap1 mRNA as percent of untreated control; 3-10-3 cEt gapmers targeting SEQ ID NO.: 1, and 2

| Substance | YAP1 (% UTC) |
| --- | --- |
| 1075979 (k[5mC]*kA*kT*dA*dA*dT*d[5mC]*d[5mC]*dA*d[5mC]*dT*dA*dT*kG*k[5mC]*kA; antisense) [Compound 1075979] | 18 % UTC |
| 1076011 (kA*kT*kA*dT*dA*dA*dA*d[5mC]*dA*dA*dT*dA*dG*k[5mC]*kG*kA; antisense) [Compound 1076011] | 61 % UTC |
| 1076043 (k[5mC]*kA*kA*dA*dA*dA*dG*dG*d[5mC]*dT*dA*dT*dT*kG*kA*kG; antisense) [Compound 1076043] | 36 % UTC |
| 1076075 (kA*k[5mC]*kA*d[5mC]*dA*dA*dG*dG*dG*dT*dT*dG*d[5mC]*kT*kA*kA; antisense) [Compound 1076075] | 38 % UTC |

same assay, conditions: Table 32; Yap1 mRNA, percent of untreated control; 3-10-3 cEt gapmers targeting SEQ ID NO.: 1, and 2

| Substance | YAP1 (% UTC) |
| --- | --- |
| 1075986 (kG*kA*kA*dT*dA*dT*d[5mC]*dG*dA*dA*dA*dA*dG*k[5mC]*kA*kA; antisense) [compound 1075986] | 26 % UTC |
| 1076018 (kA*k[5mC]*kT*dA*dA*dT*dA*dG*dG*dA*dT*dG*dG*kA*kT*kT; antisense) [compound 1076018] | 15 % UTC |
| 1076050 (k[5mC]*kT*kT*dT*dA*dG*dA*dT*dT*dA*dA*dA*dG*kG*k[5mC]*kT; antisense) [compound 1076050] | 45 % UTC |
| 1076082 (kT*k[5mC]*kT*d[5mC]*dA*dA*dT*dA*d[5mC]*dA*d[5mC]*dT*dA*kT*kA*kT; antisense) [compound 1076082] | 38 % UTC |

same assay, conditions: Table 33; Yap1 mRNA, percent of untreated control; 3-10-3 cEt gapmers targeting SEQ ID NO.: 1, and 2

| Substance | YAP1 (% UTC) |
| --- | --- |
| 1075987 (kG*kA*kA*dG*dA*dA*dT*dA*dT*d[5mC]*dG*dA*dA*kA*kA*kG; antisense) [compound 1075987] | 13 % UTC |
| 1076019 (k[5mC]*kA*k[5mC]*dT*dA*dA*dT*dA*dG*dG*dA*dT*dG*kG*kA*kT; antisense) [compound 1076019] | 12 % UTC |
| 1076051 (k[5mC]*kT*kT*dA*dA*d[5mC]*dT*dA*dT*dT*d[5mC]*dA*dG*k[5mC]*k[5mC]*k[5mC]; antisense) [compound 1076051] | 21 % UTC |
| 1076083 (k[5mC]*kG*k[5mC]*dT*dA*dT*dA*dA*dA*dG*dT*dG*dG*k[5mC]*kA*kT; antisense) [compound 1076083] | 46 % UTC |

same assay, conditions: Yap1 mRNA as percent of untreated control; A-431 cells; 3-10-3 cEt gapmers targeting SEQ ID NO.: 1, and 2; Table 30

| Substance | YAP1 (% UTC) |
| --- | --- |
| 1075984 (kT*kA*kT*d[5mC]*dG*dA*dA*dA*dA*dG*d[5mC]*dA*dA*kA*k[5mC]*kT; antisense) [compound 1075984] | 44 % UTC |
| 1076016 (kT*kA*kA*dT*dA*dG*dG*dA*dT*dG*dG*dA*dT*kT*k[5mC]*kT; antisense) [compound 1076016] | 8 % UTC |
| 1076048 (kG*kA*kT*dT*dA*dA*dA*dG*dG*d[5mC]*dT*dG*dG*kA*kA*kG; antisense) [compound 1076048] | 32 % UTC |
| 1076080 (k[5mC]*kA*kT*dT*dA*dG*d[5mC]*dA*dG*dT*dT*d[5mC]*dA*k[5mC]*kT*kA; antisense) [compound 1076080] | 55 % UTC |

same assay, conditions: Yap1 mRNA as percent of untreated control; A-431 cells; 3-10-3 cEt gapmers targeting SEQ ID NO.: 1, and 2; Table 31

| Substance | YAP1 (% UTC) |
| --- | --- |
| 1075985 (kA*kT*kA*dT*d[5mC]*dG*dA*dA*dA*dA*dG*d[5mC]*dA*kA*kA*k[5mC]; antisense) [compound 1075985] | 82 % UTC |
| 1076081 (kG*kA*kT*dA*dA*dT*dT*d[5mC]*dA*d[5mC]*d[5mC]*d[5mC]*dT*kT*kG*kT; antisense) [compound 1076081] | 15 % UTC |
